Assay results: US6432995B1, “Aromatic heterocyclic compounds and their use as anti-inflammatory agents” (Boehringer Ingelheim Pharmaceuticals, Inc., priority 1997, dated 2002)

melting point: 223 to 225 °C
Structure (SMILES): Cc1ccc(-n2nc(C(C)(C)C)cc2NC(=O)Nc2ccc(F)cc2)cc1C [Example 32, 1-(5-tert-Butyl-2-(3,4-dimethylphenyl)-2H-pyrazol-3-yl)-3-(4-fluorophenyl)urea]
